From patent US20060276445A1, “Bicyclic 6-alkylidene-penems as class-D beta-lactamases inhibitors” (priority 2005, published 2006) come the findings set out here.

For the first data set, the system named is E. coli GC 2883 (OXA-10 + PSE-2). Briefly: Antimicrobial susceptibility testing, microbroth dilution (NCCLS), piperacillin combined with β-lactamase inhibitor. Type of data set: cell-based. Particulars: MIC of piperacillin combined with a constant amount (4 ug/ml) of the inhibitor; class-D producing E. coli GC 2883 (OXA-10 + PSE-2); 35° C. for 18 hours. The protocol:
Antimicrobial susceptibility testing. The in vitro activities of the antibiotic, piperacillin in this case, against resistant pathogens expressing class-D enzymes were determined by the microbroth dilution method as recommended by the National Committee for Clinical Laboratory Standards (NCCLS). (NCCLS. 2000. Methods for Dilution Antimicrobial Susceptibility Tests for Bacteria That Grow Aerobically; Approved Standards: M7-A5, vol. 19. National Committee for Clinical Laboratory Standards, Villanova, Pa.). Mueller-Hinton II broth (MHBII)(BBL Cockeysville, Md.), was used for the testing procedure. Microtiter plates containing 50 μL per well of two-fold serial dilutions of piperacillin combined with a constant amount (4 ug/ml) of a B-lactamase inhibitor were inoculated with 50 μL of inoculum to yield the appropriate density (10^5 CFU/mL) in 100 μL final volume. The plates were incubated for 18-22 hours at 35° C. in ambient air. […] The MIC50 data obtained by the above said procedure are enlisted in Table 1. […] Both OXA-10 and PSE-2 are class D β-lactamases. (Bush, K. Jacoby, G. A., Medeiros, A. A. Antimicrob. Agents Chemother., 1995, 39, 1211.)
Consider `COCC(=O)N1CCn2nc(/C=C3/C(=O)N4C(C(=O)[O-])=CS[C@H]34)cc2C1.[Na+]` [Example 37, (5R),(6Z)-6-[5-(2-methoxyacetyl)-4,5,6,7-tetrahydropyrazolo[1,5-a]pyrazin-2-ylmethylene]-7-oxo-4-thia-1-azabicyclo[3.2.0]hept-2-ene-carboxylic acid, sodium salt], for which the “Minimal Inhibitory Concentration (MIC50) Data” value was found to be 2 µg/mL.

As to `O=C([O-])C1=CS[C@@H]2/C(=C\c3cc4n(n3)CCNC4)C(=O)N12.[Na+]` [Example 25, (5R),(6Z)-7-Oxo-6-(4,5,6,7-tetrahydropyrazolo[1,5-a]pyrazin-2-ylmethylene)-4-thia-1-aza-bicyclo[3.2.0]hept-2-ene-2-carboxylic acid, sodium salt], the “Minimal Inhibitory Concentration (MIC50) Data” value turned out to be 4 µg/mL.

Consider `CC(=O)N1CCc2sc(/C=C3/C(=O)N4C(C(=O)O)=CS[C@H]34)cc2C1` [Example 33, (5R,6Z)-6-[(5-acetyl-4,5,6,7-tetrahydrothieno[3,2-c]pyridin-2-yl)methylene]-oxo-4-thia-1-azabicyclo[3.2.0.]hept-2-ene-2-carboxylic acid], for which the “Minimal Inhibitory Concentration (MIC50) Data” value was 16 µg/mL. The same measure, in the same setting: then `O=C([O-])C1=CS[C@@H]2/C(=C\c3cc4n(n3)CCC4)C(=O)N12.[Na+]` [Example 8, (5R),(6Z)-6-(5,6-Dihydro-4H-pyrrolo[1,2-b]pyrazol-2-ylmethylene)-7-oxo-4-thia-1-azabicyclo[3.2.0]hept-2-ene-2-carboxylic acid, sodium salt], with 4 µg/mL; and `O=C(O)C1=CS[C@@H]2/C(=C\c3cc4c(s3)CCN(Cc3cccnc3)C4)C(=O)N12` [Example 21], with 8 µg/mL; and `O=C([O-])C1=CS[C@@H]2/C(=C\c3cc4n(n3)CCCO4)C(=O)N12.[Na+]` [Example 35, (5R)(6Z)-6-(6,7-5H-Dihydropyrazolo[5,1-b]oxazin-2-Ylmethylene)-7-oxo-4-thia-1-azabicyclo[3.2.1]hept-2-ene-2-carboxylic acid, sodium salt], with 2 µg/mL. Same read-out and setting: then `O=C([O-])C1=CS[C@@H]2/C(=C\c3cn4c(n3)CN(Cc3ccccc3)CC4)C(=O)N12.[Na+]` [Example 20, (5R),(6Z)-6-(7-Benzyl-5,6,7,8-tetrahydroimidazo[1,2-a]pyrazin-2-ylmethylene)-7-oxo-4-thia-1-azabicyclo[3.2.0]hept-2-ene-2-carboxylic acid, sodium salt], with 16 µg/mL; and `O=C([O-])CCC(=O)N1CCn2nc(/C=C3/C(=O)N4C(C(=O)[O-])=CS[C@H]34)cc2C1.[Na+].[Na+]` [Example 36, (5R),(6Z)-6-[5-(3-carboxypropionyl)-4,5,6,7-tetrahydropyrazolo[1,5-a]pyrazin-2-ylmethylene]-7-oxo-4-thia-1-azabicyclo[3.2.0]hept-2-ene-carboxylic acid, disodium salt], with 4 µg/mL.

Take `O=C(O)C1=CS[C@@H]2/C(=C\c3cc4c(s3)CCN(C(=O)c3cccnc3)C4)C(=O)N12` [Example 22]: the “Minimal Inhibitory Concentration (MIC50) Data” value was 16 µg/mL. Still for that read-out and setting: the figure for `O=C([O-])C1=CS[C@@H]2/C(=C\c3cn4c(n3)CNCC4)C(=O)N12.[Na+]` [Example 3, (5R),(6Z)-7-Oxo-6-(5,6,7,8-tetrahydroimidazo[1,2-a]pyrazin-2-ylmethylene)-4-thia-1-azabicyclo[3.2.0]hept-2-ene-2-carboxylic acid, sodium salt] is 2 µg/mL; for `CN1Cc2nc(/C=C3/C(=O)N4C(C(=O)[O-])=CS[C@H]34)cn2CC1=O.[Na+]` [Example 10, (5R),(6Z)-6-(7-Methyl-6-oxo-5,6,7,8-tetrahydro-imidazo[1,2-a]pyrazin-2-ylmethylene)-7-oxo-4-thia-1-aza-bicyclo[3.2.0]hept-2-ene-2-carboxylic acid sodium salt] it is 8 µg/mL; for `CN1CCn2cc(/C=C3/C(=O)N4C(C(=O)[O-])=CS[C@H]34)nc2C1.[Na+]` [Example 2, (5R),(6Z)-6-(7-Methyl-5,6,7,8-tetrahydroimidazo[1,2-a]pyrazin-2-ylmethylene)-7-oxo-4-thia-1-aza-bicyclo[3.2.0]hept-2-ene-2-carboxylic acid, sodium salt] it is 4 µg/mL.

As to `CC1(C)Cc2cc(/C=C3/C(=O)N4C(C(=O)[O-])=CS[C@H]34)nn2C1.[Na+]` [Example 26, (5R)(6Z)-6-(5,5-Dimethyl-4H-1.6a-diazapentalen-2-ylmethylene)-7-oxo-4-thia-1-azabicyclo[3.2.0]hept-2-ene-2-carboxylic acid, sodium salt], the “Minimal Inhibitory Concentration (MIC50) Data” value was found to be 4 µg/mL. Same read-out and setting: the figure for `O=C([O-])C1=CS[C@@H]2/C(=C\c3cn4c(n3)CSCC4)C(=O)N12.[Na+]` [Example 5, (5R),(6Z)-6-(5,6-dihydro-8H-imidazo[2,1-c][1.4]thiazin-2-ylmethylene)-7-oxo-4-thia-1-azabicyclo[3.2.0]hept-2-ene-2-carboxylic acid, sodium salt] is 2 µg/mL. As for `O=C([O-])C1=CS[C@@H]2/C(=C\c3cn4c(n3)CCC4)C(=O)N12.[Na+]` [Example 6, (5R),(6Z)-6-(6,7-Dihydro-5H-pyrrolo[1,2-a]imidazol-2-ylmethylene)-7-oxo-4-thia-1-aza-bicyclo[3.2.0]hept-2-ene-2-carboxylic acid, sodium salt], the “Minimal Inhibitory Concentration (MIC50) Data” value was 2 µg/mL.

For `O=C([O-])C1=CS[C@@H]2/C(=C\c3cc4n(n3)CCS(=O)(=O)C4)C(=O)N12.[Na+]` [Example 24, (5R),(6Z)-6-(5,5-Dioxo-4,5,6,7-tetrahydro-5λ^6-pyrazolo[5,1-c][1,4]thiazin-2-ylmethylene)-7-oxo-4-thia-1-azabicyclo[3.2.0]hept-2-ene-2-carboxylic acid, sodium salt], the “Minimal Inhibitory Concentration (MIC50) Data” value came to 4 µg/mL. On the same count and under the same terms, then `O=C([O-])C1=CS[C@@H]2/C(=C\c3cc4n(n3)CCN(C3=NCCS3)C4)C(=O)N12.[Na+]` [Example 38, (5R),(6Z)-6-[5-(4,5-Dihydrothiazol-2-yl)-4,5,6,7-tetrahydropyrazolo[1,5-a]pyrazin-2-ylmethylene]-7-oxo-4-thia-1-azabicyclo[3.2.0]hept-2-ene-2-carboxylic acid sodium salt], with 2 µg/mL; and `O=C(O)C1=CS[C@@H]2/C(=C\c3cc4c(s3)CCN(C(=O)Cc3ccccc3)C4)C(=O)N12` [Example 23], with 8 µg/mL; and `COc1ccc(CN2CCc3sc(/C=C4/C(=O)N5C(C(=O)O)=CS[C@H]45)cc3C2)cc1` [Example 4], with 4 µg/mL.

As to `O=C([O-])C1=CS[C@@H]2/C(=C\c3cn4c(n3)COCC4)C(=O)N12.[Na+]` [Example 7, (5R),(6Z)-6-(5,6-Dihydro-8H-imidazo[2,1-c][1,4]oxazin-2-ylmethylene)-7-oxo-4-thia-1-azabicyclo[3.2.0]hept-2-ene-2-carboxylic acid, sodium salt], the “Minimal Inhibitory Concentration (MIC50) Data” value was 4 µg/mL. On the same count and under the same terms, then `CC1(C)Cn2cc(/C=C3/C(=O)N4C(C(=O)[O-])=CS[C@H]34)nc2CN1.[Na+]` [Example 29, (5R),(6Z)-6-(6,6-Dimethyl-5,6,7,8-tetrahydroimidazo[1,2-a]pyrizin-2-ylmethylene)-7-oxo-4-thia-1-azabicyclo[3.2.0]hept-2-ene-2-carboxylic acid, sodium salt], with 4 µg/mL. Same read-out and setting: the figure for `O=C(O)C1=CS[C@@H]2/C(=C\c3cnc4n3CCSC4)C(=O)N12` [Example 30, (5R),(6Z)-6-(5,6-Dihydro-8-H-imidazo[2,1-c][1,4]thiazin-3-ylmethylene)-7-oxo-4-thia-1-azabicyclo[3.2.0]hept-2-ene-2-carboxylic acid] is 4 µg/mL; for `O=C([O-])C1=CS[C@@H]2/C(=C\c3cc4c(o3)CCC4)C(=O)N12.[Na+]` [Example 27, (5R),(6Z)-6-(5,6-Dihydro-4H-cyclopenta[b]furan-2-ylmethylene)-7-oxo-4-thia-1-azabicyclo[3.2.0]hept-2-ene-2-carboxylic acid, sodium salt] it is 2 µg/mL.

System in another data set: not given
Experiment: not given
Details: not given
The term melting point denotes the temperature, or range, at which the solid turns liquid. With `O=C(O)C1=CS[C@@H]2/C(=C\c3cc4c(s3)CCN(Cc3ccccc3)C4)C(=O)N12` [Example 1, (5R,6Z)-6-[(5-benzyl-4,5,6,7-tetrahydrothieno[3,2-c]pyridin-2-yl)methylene]-7oxo-4-thia-1-azabicyclo[3.2.0]hept-2-ene-2-carboxylic acid], the melting point was 198 °C. With `CCOC(=O)N1CCc2sc(C=C3C(=O)N4C(C(=O)O)=CSC34)cc2C1` (centres unmarked) [Example 18, 2-(2-Carboxy-7-oxo-4-thia-1-aza-bicyclo[3.2.0]hept-2-en-6-ylidenemethyl)-6,7-dihydro-4H-thieno[3,2-c]pyridine-5-carboxylic acid ethyl ester], the melting point is more than 250 °C. Still for that read-out and setting: the figure for `CN1CCc2sc(C=C3C(=O)N4C(C(=O)O)=CSC34)cc2C1` (centres unmarked) [Example 17, 6-(5-Methyl-4,5,6,7-tetrahydro-thieno[3,2-c]pyridin-2-ylmethylene)-7-oxo-4-thia-1-aza-bicyclo[3.2.0]hept-2-ene-2-carboxylic acid] is more than 250 °C.
